Measurements: patent US8691859B2 (priority 2005, dated 2014)
Converted amounts (≈) assume the structure as drawn.

Assays:
[1] = tested on: B. anthracis GFP sterne spores; assay: microbe, parasite or virus in culture; format: cell-based; conditions: for MIC: Bacillus anthracis, read-out: MIC B. anthracis spores
[2] = tested on: B. anthracis GFP sterne vegetative cells; assay: microbe, parasite or virus in culture; format: cell-based; conditions: for MIC: Bacillus anthracis, read-out: MIC B. anthracis vegetative cells

Molecule | MIC [1] | MIC [2] | MIC B. anthracis spores [1] | MIC B. anthracis vegetative cells [2]
Cc1cc(N)c2cc(NC(=O)Nc3ccc4nc(C)cc(N)c4c3)ccc2n1 [NSC 12155, 1,3-bis(4-amino-2-methyl-quinolin-6-yl)urea] | 4.45 µg/mL (≈ 11.9 µM) | 17.8 µg/mL (≈ 47.8 µM) | – | –
Cc1cc2nc(C=Cc3nc4cc(C)c(C)cc4[nH]3)[nH]c2cc1C [NSC 92833, 2-[2-(5,6-dimethyl-1H-benzoimidazol-2-yl)ethenyl]-5,6-dimethyl-1H-benzoimidazole] | > 12.6 µg/mL | > 12.6 µg/mL | – | –
C(=Cc1nc2ccccc2[nH]1)c1nc2ccccc2[nH]1 [NSC 103699, 2-[2-(1H-benzoimidazol-2-yl)ethenyl]-1H-benzoimidazole] | > 10.4 µg/mL | > 10.4 µg/mL | – | –
OCCn1c(C=Cc2nc3ccccc3[nH]2)nc2ccccc21 [NSC 103701, 2-[2-[2-(1H-benzoimidazol-2-yl)ethenyl]benzoimidazol-1-yl]ethanol] | > 12.2 µg/mL | > 12.2 µg/mL | – | –
CC(O)C(=O)O.N=C(N)c1ccc(-c2cc3ccc(C(=N)N)cc3s2)cc1 [NSC 240890, 2-(4-carbamimidoylphenyl)benzothiophene-6-carboximidamide; 2-hydroxypropanoic acid] | > 19 µg/mL | > 19 µg/mL | – | –
N=C(N)c1ccc(-c2cc3cc(C(=N)N)ccc3s2)cc1 [NSC 240891, 2-(4-carbamimidoylphenyl)benzothiophene-5-carboximidamide] | > 14.7 µg/mL | > 14.7 µg/mL | – | –
N=C(N)c1ccc(-c2nc3ccc(C(=N)N)cc3[nH]2)cc1 [NSC 240894, 2-(4-carbamimidoylphenyl)-3H-benzoimidazole-5-carboximidamide] | > 14 µg/mL | > 14 µg/mL | – | –
N=C(N)c1ccc(-n2cc3cc(C(=N)N)ccc3n2)cc1 [NSC 240895, 2-(4-carbamimidoylphenyl)indazole-5-carboximidamide] | > 14 µg/mL | > 14 µg/mL | – | –
N=C(N)c1ccc(-n2nc3ccc(C(=N)N)cc3n2)cc1 [NSC 240896, 2-(4-carbamimidoylphenyl)benzotriazole-5-carboximidamide] | > 14.1 µg/mL | > 14.1 µg/mL | – | –
N=C(N)c1ccc(-c2[nH]c3cc(C(=N)N)ccc3c2-c2ccccc2)cc1 [NSC 240897, 2-(4-carbamimidoylphenyl)-3-phenyl-1H-indole-6-carboximidamide] | 8.52 µg/mL (≈ 24.1 µM) | 17 µg/mL (≈ 48.2 µM) | – | –
N=C(N)c1ccc(-c2cc(-c3ccc(C(=N)N)cc3)on2)cc1 [NSC 240900, 4-[3-(4-carbamimidoylphenyl)oxazol-5-yl]benzenecarboximidamide] | > 15.1 µg/mL | > 15.1 µg/mL | – | –
N=C(N)c1ccc2oc(/C=C/c3cc4cc(C(=N)N)ccc4s3)cc2c1 [NSC 266472, 2-[(E)-2-(5-carbamimidoylbenzothiophen-2-yl)ethenyl]benzofuran-5-carboximidamide] | 8.66 µg/mL (≈ 24 µM) | 17.3 µg/mL (≈ 48.1 µM) | – | –
N=C(N)c1ccc2nc(/C=C/c3nc4ccc(C(=N)N)cc4[nH]3)[nH]c2c1 [NSC 266475, 2-[(E)-2-(5-carbamimidoyl-3H-benzoimidazol-2-yl)ethenyl]-3H-benzoimidazole-5-carboximidamide] | > 16.7 µg/mL | > 16.7 µg/mL | – | –
N=C(N)c1ccc2oc(CCc3cc4cc(C(=N)N)ccc4o3)cc2c1 [NSC 266477, 2-[2-(5-carbamimidoylbenzofuran-2-yl)ethyl]benzofuran-5-carboximidamide] | > 16.8 µg/mL | > 16.8 µg/mL | – | –
Nc1ccc(C2=Cc3ccc(N)cc3S2(=O)=O)cc1 [NSC 266482, 2-(4-aminophenyl)-1,1-dioxo-benzothiophen-6-amine] | > 10.9 µg/mL | > 10.9 µg/mL | – | –
c1cc(-c2cc3ccc(C4=NCCN4)cc3[nH]2)ccc1C1=NCCN1 [NSC 278995, 6-(4,5-dihydro-1H-imidazol-2-yl)-2-[4-(4,5-dihydro-1H-imidazol-2-yl)phenyl]-1H-indole] | > 16.1 µg/mL | > 16.1 µg/mL | – | –
c1cc(-c2cc3ccc(C4=NCCN4)cc3s2)ccc1C1=NCCN1 [NSC 278996, 2-[2-[4-(4,5-dihydro-1H-imidazol-2-yl)phenyl]benzothiophen-6-yl]-4,5-dihydro-1H-imidazole] | > 16.8 µg/mL | > 16.8 µg/mL | – | –
C(=C\c1cc2cc(C3=NCCN3)ccc2o1)/c1cc2cc(C3=NCCN3)ccc2o1 [NSC 278999, 2-[2-[(E)-2-[5-(4,5-dihydro-1H-imidazol-2-yl)benzofuran-2-yl]ethenyl]benzofuran-5-yl]-4,5-dihydro-1H-imidazole] | > 18.8 µg/mL | > 18.8 µg/mL | – | –
O=C(Nc1ccc(C2=NCCN2)cc1)c1cc2cc(C3=NCCN3)ccc2o1 [NSC 290111, 5-(4,5-dihydro-1H-imidazol-2-yl)-N-[4-(4,5-dihydro-1H-imidazol-2-yl)phenyl]benzofuran-2-carboxamide] | 17.8 µg/mL (≈ 47.8 µM) | > 17.8 µg/mL | – | –

Molecule | MIC [1] | MIC [2] | MIC B. anthracis spores [1] | MIC B. anthracis vegetative cells [2]
N=C(N)c1ccc2cc(/C=C/c3cc4ccc(C(=N)N)cc4o3)oc2c1 [NSC 294199, 2-[(E)-2-(6-carbamimidoylbenzofuran-2-yl)ethenyl]benzofuran-6-carboximidamide] | 8.34 µg/mL (≈ 24.2 µM) | 16.7 µg/mL (≈ 48.4 µM) | – | –
N=C(N)c1ccc2oc(/C=C/c3cc4ccc(C(=N)N)cc4o3)cc2c1 [NSC 294202, 2-[(E)-2-(5-carbamimidoylbenzofuran-2-yl)ethenyl]benzofuran-6-carboximidamide] | > 16.7 µg/mL | > 16.7 µg/mL | – | –
N=C(N)c1ccc(NC(=O)c2cc3ccc(C(=N)N)cc3o2)cc1 [NSC 294207, 6-carbamimidoyl-N-(4-carbamimidoylphenyl)benzofuran-2-carboxamide] | > 15.8 µg/mL | > 15.8 µg/mL | – | –
O=C(Nc1ccc(C2=NCCN2)cc1)c1cc2ccc(C3=NCCN3)cc2o1 [NSC 294208, 6-(4,5-dihydro-1H-imidazol-2-yl)-N-[4-(4,5-dihydro-1H-imidazol-2-yl)phenyl]benzofuran-2-carboxamide] | > 17.8 µg/mL | > 17.8 µg/mL | – | –
C(=C\c1cc2ccc(C3=NCCN3)cc2o1)/c1cc2ccc(C3=NCCN3)cc2o1 [NSC 294494, 2-[2-[(E)-2-[6-(4,5-dihydro-1H-imidazol-2-yl)benzofuran-2-yl]ethenyl]benzofuran-6-yl]-4,5-dihydro-1H-imidazole] | 18.8 µg/mL (≈ 47.3 µM) | 18.8 µg/mL (≈ 47.3 µM) | – | –
N=C(N)c1ccc(-c2[nH]c3cc(C(=N)N)ccc3c2N)cc1 [NSC 300509, 3-amino-2-(4-carbamimidoylphenyl)-1H-indole-6-carboximidamide] | > 14.6 µg/mL | > 14.6 µg/mL | – | –
N=C(N)c1ccc(-c2ccc(-c3ccc(C(=N)N)cc3)s2)cc1 [NSC 300510, 4-[5-(4-carbamimidoylphenyl)thiophen-2-yl]benzenecarboximidamide] | 15.7 µg/mL (≈ 49.1 µM) | > 15.7 µg/mL | – | –
N=C(N)c1ccc(/C=C/c2cc3cc(C(=N)N)ccc3o2)cc1 [NSC 300512, 2-[(E)-2-(4-carbamimidoylphenyl)ethenyl]benzofuran-5-carboximidamide] | > 15.1 µg/mL | > 15.1 µg/mL | – | –
c1cc(-c2cc3cc(C4=NCCN4)ccc3s2)ccc1C1=NCCN1 [NSC 308569, 2-[2-[4-(4,5-dihydro-1H-imidazol-2-yl)phenyl]benzothiophen-5-yl]-4,5-dihydro-1H-imidazole] | > 16.8 µg/mL | > 16.8 µg/mL | – | –
C(=C\c1cc2cc(C3=NCCN3)ccc2o1)/c1ccc(C2=NCCN2)cc1 [NSC 308570, 2-[2-[(E)-2-[4-(4,5-dihydro-1H-imidazol-2-yl)phenyl]ethenyl]benzofuran-5-yl]-4,5-dihydro-1H-imidazole] | 17.2 µg/mL (≈ 48.1 µM) | 17.2 µg/mL (≈ 48.1 µM) | – | –
C(/C=C/c1cc2cc(C3=NCCN3)ccc2o1)=C\c1ccc(C2=NCCN2)cc1 [NSC 308573, 2-[2-[(1E,3E)-4-[4-(4,5-dihydro-1H-imidazol-2-yl)phenyl]buta-1,3-dienyl]benzofuran-5-yl]-4,5-dihydro-1H-imidazole] | 18.2 µg/mL (≈ 47.6 µM) | 18.2 µg/mL (≈ 47.6 µM) | – | –
C(=C\c1cc2cc(C3=NCCN3)ccc2s1)/c1ccc(C2=NCCN2)cc1 [NSC 317883, 2-[2-[(E)-2-[4-(4,5-dihydro-1H-imidazol-2-yl)phenyl]ethenyl]benzothiophen-5-yl]-4,5-dihydro-1H-imidazole] | 17.8 µg/mL (≈ 47.8 µM) | 17.8 µg/mL (≈ 47.8 µM) | – | –
c1cc2cc(-c3cc4ccc(C5=NCCN5)cc4[nH]3)[nH]c2cc1C1=NCCN1 [NSC 330688, 6-(4,5-dihydro-1H-imidazol-2-yl)-2-[6-(4,5-dihydro-1H-imidazol-2-yl)-1H-indol-2-yl]-1H-indole] | 0.551 µg/mL (≈ 1.5 µM) | 1.1 µg/mL (≈ 2.99 µM) | – | –
N=C(N)c1ccc2c(c1)=NC(=C(N)N)C=2 [NSC 330689, 2-(diaminomethylidene)indole-6-carboximidamide] | > 11 µg/mL | > 11 µg/mL | – | –
C(=C\c1cc2ccc(C3=NCCN3)cc2[nH]1)/c1ccc(Oc2ccc(C3=NCCN3)cc2)cc1 [NSC 330690, 6-(4,5-dihydro-1H-imidazol-2-yl)-2-[(E)-2-[4-[4-(4,5-dihydro-1H-imidazol-2-yl)phenoxy]phenyl]ethenyl]-1H-indole] | 2.6 µg/mL (≈ 5.81 µM) | 2.6 µg/mL (≈ 5.81 µM) | – | –
NC(N)=Nc1ccc(-c2cc3cc(N=C(N)N)ccc3s2)cc1 [NSC 341910, 2-[2-[4-(diaminomethylideneamino)phenyl]benzothiophen-5-yl]guanidine] | 15.9 µg/mL (≈ 48.9 µM) | > 15.9 µg/mL | – | –
c1cc(-c2[nH]c3cc(C4=NCCN4)ccc3c2-c2cc3ccc(C4=NCCN4)cc3[nH]2)ccc1C1=NCCN1 [NSC 352341, 6-(4,5-dihydro-1H-imidazol-2-yl)-3-[6-(4,5-dihydro-1H-imidazol-2-yl)-1H-indol-2-yl]-2-[4-(4,5-dihydro-1H-imidazol-2-yl)phenyl]-1H-indole] | – | – | 6.82 µg/mL (≈ 13.3 µM) | 13.64 µg/mL (≈ 26.6 µM)
c1cc(-c2nc3ccc(-c4nc5ccc(C6=NCCN6)cc5[nH]4)cc3[nH]2)ccc1C1=NCCN1 [NSC 369721, 5-(4,5-dihydro-1H-imidazol-2-yl)-2-[2-[4-(4,5-dihydro-1H-imidazol-2-yl)phenyl]-3H-benzoimidazol-5-yl]-3H-benzoimidazole] | 1.39 µg/mL (≈ 3.11 µM) | 22.3 µg/mL (≈ 49.9 µM) | – | –
Glycine, N-acetyl-, compound with 2,2′-(1,{2-ethenediyl)bis[5-benzofurancarboximidamide]} (2:1) [NSC 341082] | – | – | >23.16 µg/mL | >23.16 µg/mL
